In PubChem BioAssay AID1919016 (Molecular Pharmacology Branch, DTP, NCI, 2023):

System: NCI-H196 complex spheroid growth, percent test/control
Test: Anticancer human tumor NCI-H196 cell line growth inhibition [AhR];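 note: seven days of drug exposure starting three days after plating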;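 for viability, T/C: 100% = DMSO vehicle control wells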
Details: for IC50: curve of first compound; for viability, T/C: stronger effect = lower value
Source text: Multicellular complex tumor spheroid response to aryl hydrocarbon receptor antagonists in combination with a variety of drugs and investigational agents in selected tumor cell lines
The current study was undertaken to assess response to aryl hydrocarbon receptor antagonists in combination with standard-of-care drugs and investigational agents in solid tumor complex spheroid models. Complex spheroids include a stromal component modeled by human endothelial cells (HUVEC) and fibroblasts modeled by human mesenchymal stem cells (MSCs). The concentration ranges selected for each drug and investigational agent were based upon clinically achievable concentrations if the clinical Cmax of the agent was known.
Compounds. The drugs and investigational agents: BAY 2416964 (NSC825713), GNF351 (NSC835774), CH-223191 (NSC835775), CPI-455 (NSC825282), aza-TdCyd (NSC777586), decitabine (NSC127716), belinostat (NSC758774), entinostat (NSC756642), pevonedistat (NSC761192), tazemetostat (NSC777109), talazoparib (NSC765396), olaparib (NSC753686), selinexor (NSC780203), nedisertib (M3814, NSC802822), bortezomib (NSC756655), venetoclax (NSC766270), doxorubicin (NSC123127), elimusertib (BAY189344, NSC800525), ceralasertib (AZD6738, NSC777638), TAK-243 (NSC785004), alisertib (NSC759677), etoposide (NSC141540), topotecan (NSC609699), eribulin (NSC707389), gemcitabine (NSC613327), carboplatin (NSC241240), cisplatin (NSC119875), and SN-38 (NSC673596) were obtained from the National Cancer Institute (NCI) Developmental Therapeutics Program Chemical Repository (32). The FDA-approved anticancer drug set is available from the Developmental Therapeutics Program at https://dtp.cancer.gov/organization/dscb/obtaining/available plates.htm. […] The stock solutions were prepared in dimethyl sulfoxide (DMSO, Sigma-Aldrich, St. Louis, MO, cat. D2650), except for the platinum compounds which were prepared in saline (Quality Biological, Gaithersburg, MD, cat. 114-055-101), at 800-fold the tested concentration and stored at -70 degrees C prior to their use. All drugs and investigational agents were tested over a range starting from a high concentration at or near the clinical Cmax and decreasing in half-log increments. If the clinical Cmax for an agent had not been determined, the highest concentration tested was 10 microM (Table 1).
Cell Culture. All cells were maintained in an incubator at 37 degrees C and 5% CO2 with 95% humidity. The PDC lines were cultured according to standard operating procedures established by the NCI PDMR (https://pdmr.cancer.gov). Briefly, all PDCs were thawed and cultured in Matrigel-coated flasks prepared with a working solution of 1X Ham's F-12 nutrient mix, without supplementation (Invitrogen, Waltham, MA, cat. 11765054), 100 U/mL penicillin-streptomycin (Invitrogen, cat. 15140122), and 2.5% Matrigel (Corning Inc., Corning, NY, cat. 354248) for the first three passages. All PDCs were cultured in complete DMEM/F-12 media containing advanced DMEM/F-12 (Invitrogen, cat. 12634028), 4.9% defined fetal bovine serum, heat inactivated (HyClone Laboratories Inc., Logan, UT, cat. SH30070.03HI), 389 ng/mL hydrocortisone (Sigma-Aldrich, cat. H4001), 9.7 ng/mL human EGF recombinant protein (Invitrogen, cat. PHG0313), 23.4 microg/mL adenine (Sigma-Aldrich, cat. A2786), 97.3 U/mL penicillin-streptomycin (Invitrogen, cat. 15140122), 1.9 mM L-glutamine (Invitrogen, cat. 25030081), and 9.7 microM Y-27632 dihydrochloride (Tocris Bioscience, Bristol, United Kingdom, cat. 1254). The PDCs were cultured in complete DMEM/F12 media without 10 microM Y-27632 dihydrochloride for at least two passages prior to the screen. The established cell lines NCI-H1341 and […] were cultured in DMEM/F-12, HEPES (Invitrogen, cat. 11330032), 5% defined fetal bovine serum (HyClone Laboratories Inc., cat. SH30070.03), ITS premix universal culture supplement [insulin (5 microg/mL), transferrin (5 microg/mL), and selenious acid (5 ng/mL)] […]

CCc1c2c(nc3ccc(O)cc13)-c1cc3c(c(=O)n1C2)COC(=O)[C@]3(O)CC + Cc1cncc(-c2nc(NCCc3c[nH]c4ccccc34)c3ncn(C(C)C)c3n2)c1
IC50 (second compound 0.1 µM): > 300 nM
IC50 (second compound 0.316 µM): > 300 nM
IC50 (second compound 1 µM): > 300 nM
IC50 (second compound 3.16 µM): > 300 nM
IC50 (second compound 10 µM): 104 nM
viability, T/C (second compound 0.1 µM, first compound 0.000949 µM): 99.9%
viability, T/C (second compound 0.1 µM, first compound 0.003 µM): 102%
viability, T/C (second compound 0.1 µM, first compound 0.00949 µM): 104%
viability, T/C (second compound 0.1 µM, first compound 0.03 µM): 102%
viability, T/C (second compound 0.1 µM, first compound 0.0949 µM): 87.6%
viability, T/C (second compound 0.1 µM, first compound 0.3 µM): 78.5%
viability, T/C (second compound 0.316 µM, first compound 0.000949 µM): 91.3%
viability, T/C (second compound 0.316 µM, first compound 0.003 µM): 91.9%
viability, T/C (second compound 0.316 µM, first compound 0.00949 µM): 96%
viability, T/C (second compound 0.316 µM, first compound 0.03 µM): 100%
viability, T/C (second compound 0.316 µM, first compound 0.0949 µM): 77.2%
viability, T/C (second compound 0.316 µM, first compound 0.3 µM): 74.2%
viability, T/C (second compound 1 µM, first compound 0.000949 µM): 99.3%
viability, T/C (second compound 1 µM, first compound 0.003 µM): 109%
viability, T/C (second compound 1 µM, first compound 0.00949 µM): 116%
viability, T/C (second compound 1 µM, first compound 0.03 µM): 102%
viability, T/C (second compound 1 µM, first compound 0.0949 µM): 96.9%
viability, T/C (second compound 1 µM, first compound 0.3 µM): 57.8%
viability, T/C (second compound 3.16 µM, first compound 0.000949 µM): 96.9%
viability, T/C (second compound 3.16 µM, first compound 0.003 µM): 102%
viability, T/C (second compound 3.16 µM, first compound 0.00949 µM): 92.4%
viability, T/C (second compound 3.16 µM, first compound 0.03 µM): 85.6%
viability, T/C (second compound 3.16 µM, first compound 0.0949 µM): 86.7%
viability, T/C (second compound 3.16 µM, first compound 0.3 µM): 52.5%
viability, T/C (second compound 10 µM, first compound 0.000949 µM): 82.9%
viability, T/C (second compound 10 µM, first compound 0.003 µM): 88.5%
viability, T/C (second compound 10 µM, first compound 0.00949 µM): 90%
viability, T/C (second compound 10 µM, first compound 0.03 µM): 65.5%
viability, T/C (second compound 10 µM, first compound 0.0949 µM): 54.6%
viability, T/C (second compound 10 µM, first compound 0.3 µM): 30.5%

CC(C)c1c(-c2ccccc2)nc2c(C#N)c[nH]n2c1=O + CC(CO)NC(=O)c1cc(-c2ccc(Cl)cc2)nn(-c2cnn(C)c2)c1=O
IC50 (second compound 0.1 µM): > 10000 nM
IC50 (second compound 0.316 µM): > 10000 nM
IC50 (second compound 1 µM): > 10000 nM
IC50 (second compound 3.16 µM): > 10000 nM
IC50 (second compound 10 µM): > 10000 nM
viability, T/C (second compound 0.1 µM, first compound 0.0316 µM): 118%
viability, T/C (second compound 0.1 µM, first compound 0.1 µM): 107%
viability, T/C (second compound 0.1 µM, first compound 0.316 µM): 111%
viability, T/C (second compound 0.1 µM, first compound 1 µM): 105%
viability, T/C (second compound 0.1 µM, first compound 3.16 µM): 104%
viability, T/C (second compound 0.1 µM, first compound 10 µM): 102%
viability, T/C (second compound 0.316 µM, first compound 0.0316 µM): 116%
viability, T/C (second compound 0.316 µM, first compound 0.1 µM): 128%
viability, T/C (second compound 0.316 µM, first compound 0.316 µM): 109%
viability, T/C (second compound 0.316 µM, first compound 1 µM): 112%
viability, T/C (second compound 0.316 µM, first compound 3.16 µM): 108%
viability, T/C (second compound 0.316 µM, first compound 10 µM): 111%
viability, T/C (second compound 1 µM, first compound 0.0316 µM): 111%
viability, T/C (second compound 1 µM, first compound 0.1 µM): 114%
viability, T/C (second compound 1 µM, first compound 0.316 µM): 117%
viability, T/C (second compound 1 µM, first compound 1 µM): 121%
viability, T/C (second compound 1 µM, first compound 3.16 µM): 118%
viability, T/C (second compound 1 µM, first compound 10 µM): 104%
viability, T/C (second compound 3.16 µM, first compound 0.0316 µM): 109%
viability, T/C (second compound 3.16 µM, first compound 0.1 µM): 111%
viability, T/C (second compound 3.16 µM, first compound 0.316 µM): 118%
viability, T/C (second compound 3.16 µM, first compound 1 µM): 114%
viability, T/C (second compound 3.16 µM, first compound 3.16 µM): 117%
viability, T/C (second compound 3.16 µM, first compound 10 µM): 110%
viability, T/C (second compound 10 µM, first compound 0.0316 µM): 116%
viability, T/C (second compound 10 µM, first compound 0.1 µM): 127%
viability, T/C (second compound 10 µM, first compound 0.316 µM): 114%
viability, T/C (second compound 10 µM, first compound 1 µM): 119%
viability, T/C (second compound 10 µM, first compound 3.16 µM): 111%
viability, T/C (second compound 10 µM, first compound 10 µM): 108%
